Measurements taken from patent US9469645B2, “Compounds and compositions for the treatment of parasitic diseases” (Novartis AG, priority 2009, dated 2016).
pEC50: −log10 of the molar value. Where two headings read alike, the source gives them in different places.

Legend:
[1] = system: 3D7 P. falciparum strain; assay: parasite proliferation assay in infected red blood cells (SYBR Green I); assay type: cell-based, Plasmodium falciparum; settings: 3D7 strain, read-out: EC50 3D7 strain
Outline: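 P. falciparum 3D7 grown in O+ human erythrocytes to 3–8% parasitemia and exposed to compounds. Proliferation read as the increase in parasite DNA. Detection used SYBR Green I in saponin/triton-X/EDTA lysis buffer, with overnight lysis at room temperature.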

[2] = system: W2 strain; assay: parasite proliferation assay in infected red blood cells (SYBR Green I), W2 strain; assay type: cell-based, Plasmodium falciparum
From the text: Compounds of the invention can be assayed to measure their capacity to inhibit proliferation of parasitemia in infected red blood cells. The proliferation is quantified by the addition of SYBR Green I (INVITROGEN)® dye which has a high affinity for double stranded DNA.

[3] = Plasmodium falciparum, 3D7, Erythrocyte
[4] = Plasmodium falciparum, Erythrocyte

Compound	pEC50 [1, 3]	pEC50 [2, 4]	pEC50 [1]	pEC50 ([2]; W2 strain)
Cc1ccc(Nc2c(-c3ccc(F)cc3)nc3n2CCN(C(=O)C(C)(C)N)C3(C)C)cc1C#N [Compound 590]	7.52	7.74	–	–
CC(C)[C@@H](O)C(=O)N1CCn2c(nc(-c3ccc(F)cc3)c2Nc2ccc(F)c(F)c2)C1 [Compound 430]	8.00	7.72	–	–
CC1(C)NC(=O)Cn2c1nc(-c1ccc(F)c(F)c1)c2Nc1ccc(Cl)c(F)c1 [Compound 551]	7.40	7.01	–	–
Cc1ccc(Nc2c(-c3ccc(Cl)c(F)c3)nc3n2CCNC3)cc1 [Compound 498]	5.20	5.17	–	–
CN1CCN(Cc2cccc(Nc3c(-c4ccc(F)cc4)nc4n3CC(=O)NC4(C)C)c2)CC1 [Compound 569]	5.03	5.10	–	–
CC(C)[C@H]1c2nc(-c3ccc(F)cc3)c(Nc3ccc(Cl)c(F)c3)n2CCN1C(=O)CN [Compound 595]	6.47	6.31	–	–
CC1(C)NCCn2c1nc(-c1ccc(F)cc1)c2Nc1ccc(Cl)cc1 [Compound 416]	8.00	7.80	–	–
N[C@H](C(=O)N1CCn2c(nc(-c3ccc(F)cc3)c2Nc2ccc(Cl)cc2)C1)C1CC1 [Compound 450]	7.70	7.82	–	–
N[C@@H](Cc1ccc(F)cc1)C(=O)N1CCn2c(nc(-c3ccc(F)cc3)c2Nc2ccc(F)cc2)C1 [Compound 473]	7.52	7.68	–	–
Cc1cc(Nc2c(-c3ccc(F)cc3)nc3n2CC(=O)NC3(C)C)nn1C [Compound 560]	5.44	5.28	–	–
Cc1ccc(Nc2c(-c3ccc(F)cc3)nc3n2CCN(C(=O)[C@@](C)(N)CO)C3)cc1 [Compound 504]	7.05	7.03	–	–
Cc1ccc(Nc2c(-c3ccc(F)cc3)nc3n2CCN(C(=O)[C@@H](N)C2CC2)C3)cc1 [Compound 404]	7.70	7.92	–	–
CC(C)(N)C(=O)N1CCn2c(nc(-c3ccc(F)cc3)c2Nc2ccc(Cl)c(Cl)c2)C1(C)C [Compound 587]	8.00	7.92	–	–
Cc1ccc(Nc2c(-c3ccc(F)cc3)nc3n2CCN(C(=O)[C@@H](N)Cc2ccc(F)c(F)c2)C3)cc1 [Compound 485]	7.52	7.64	–	–
CC(C)[C@H](N)C(=O)N1CCn2c(nc(-c3ccc(F)cc3)c2Nc2ccc(F)cc2)C1 [Compound 464]	7.52	7.62	–	–
Cc1ccc(Nc2c(-c3ccc(F)cc3)nc3n2CCN(C(=O)[C@@H](N)c2ccc(F)cc2)C3)cc1 [Compound 482]	7.70	8.05	–	–
CC(C)C[C@H](N)C(=O)N1CCn2c(nc(-c3ccc(F)cc3)c2Nc2ccc(F)cc2)C1 [Compound 468]	7.52	7.70	–	–
CC(C)C[C@H](N)C(=O)N1CCn2c(nc(-c3ccc(F)cc3)c2Nc2ccc(F)c(F)c2)C1 [Compound 439]	7.52	7.40	–	–
N[C@H](C(=O)N1CCn2c(nc(-c3ccc(F)cc3)c2Nc2ccc(F)c(F)c2)C1)C1CC1 [Compound 437]	7.70	7.55	–	–
CC(C)(N)C(=O)N1CCn2c(nc(-c3ccc(F)cc3)c2Nc2ccc(F)cc2)C1(C)C [Compound 583]	8.00	8.05	–	–

Compound	pEC50 [1, 3]	pEC50 [2, 4]	pEC50 [1]	pEC50 ([2]; W2 strain)
Cc1ccc(Nc2c(-c3ccc(F)c(C)c3)nc3n2CCNC3)cc1 [Compound 494]	5.55	5.67	–	–
Cc1ccc(Nc2c(-c3ccc(F)cc3)nc3n2CCN(C(=O)[C@@H](N)CC2CC2)C3)cc1 [Compound 401]	7.70	7.92	–	–
CC(C)(N)C(=O)N1CCn2c(nc(-c3ccc(F)cc3)c2Nc2ccc(F)c(F)c2)C1(C)C [Compound 585]	8.00	8.15	–	–
N[C@H](C(=O)N1CCn2c(nc(-c3ccc(F)cc3)c2Nc2ccc(F)cc2)C1)c1ccc(F)cc1 [Compound 472]	7.30	7.43	–	–
tert-butyl 1-(2-(4-fluorophenyl)-5,6-dihydroimidazo[1,2-a]pyrazin-7(8H)-yl)-2-methyl-1-oxopropan-2-ylcarbamate [Compound 530]	–	–	5.91	5.19
CC1(C)NC(=O)Cn2c1nc(-c1ccc(F)cc1)c2Nc1cccc(C(F)(F)F)c1 [Compound 500]	5.81	5.96	–	–
CC(C)[C@H]1NC(=O)Cn2c1nc(-c1ccc(F)cc1)c2Nc1ccc(Cl)cc1 [Compound 549]	5.77	5.49	–	–
N[C@@H](Cc1cscn1)C(=O)N1CCn2c(nc(-c3ccc(F)cc3)c2Nc2ccc(Cl)cc2)C1 [Compound 461]	7.52	7.66	–	–
CC1(C)NCCn2c1nc(-c1ccc(F)cc1)c2Nc1cccc(C(F)(F)F)c1 [Compound 515]	7.40	7.47	–	–
N[C@@H](CC1CC1)C(=O)N1CCn2c(nc(-c3ccc(F)cc3)c2Nc2ccc(F)c(F)c2)C1 [Compound 438]	7.70	7.64	–	–
Cc1cc(Nc2c(-c3ccc(F)cc3)nc3n2CCN(C(=O)C(C)(C)N)C3)cc(C)c1F [Compound 428]	6.77	6.62	–	–
CC1(C)NCCn2c1nc(-c1ccc(F)cc1)c2Nc1ccc(F)cc1 [Compound 493]	8.40	8.30	–	–
C[C@H](N)C(=O)N1CCn2c(nc(-c3ccc(F)cc3)c2Nc2ccc(Cl)cc2)C1 [Compound 448]	7.70	7.66	–	–
Cc1ccc(Nc2c(-c3ccc(F)cc3)nc3n2CCN(C(=O)[C@@](C)(N)Cc2ccc(F)cc2)C3)cc1 [Compound 502]	5.86	5.86	–	–
CC1(C)c2nc(-c3ccc(F)cc3)c(NC3CCCCC3)n2CCN1C(=O)CN [Compound 531]	7.40	7.24	–	–
CC[C@H](C)[C@H](N)C(=O)N1CCn2c(nc(-c3ccc(F)cc3)c2Nc2ccc(Cl)cc2)C1 [Compound 454]	7.70	8.10	–	–
N[C@@H](CC1CC1)C(=O)N1CCn2c(nc(-c3ccc(F)cc3)c2Nc2ccc(Cl)c(F)c2)C1 [Compound 488]	7.70	7.89	–	–
C[C@@H]1NC(=O)Cn2c1nc(-c1ccc(F)cc1)c2Nc1ccc(Cl)cc1 [Compound 563]	6.51	6.35	–	–
CCN1CCCC1CNc1c(-c2ccc(F)cc2)nc2n1CC(=O)NC2(C)C (stereo not shown) [Compound 561]	5.14	5.36	–	–
CC1(C)NC(=O)Cn2c1nc(-c1ccc(F)cc1)c2Nc1cccc(F)c1 [Compound 501]	6.40	6.52	–	–

Compound	pEC50 [1, 3]	pEC50 [2, 4]	pEC50 [1]	pEC50 ([2]; W2 strain)
N[C@H](C(=O)N1CCn2c(nc(-c3ccc(F)cc3)c2Nc2ccc(F)c(F)c2)C1)c1ccc(F)cc1 [Compound 436]	7.52	7.28	–	–
CC1(C)NC(=O)Cn2c1nc(-c1ccc(F)cc1)c2Nc1ccc(C#N)c(Cl)c1 [Compound 548]	5.58	5.26	–	–
C[C@H]1NC(=O)Cn2c1nc(-c1ccc(F)cc1)c2Nc1ccc(Cl)cc1 [Compound 565]	7.15	6.98	–	–
CC1(C)c2nc(-c3ccc(F)cc3)c(Nc3ccc(C#N)c(Cl)c3)n2CCN1C(=O)CN [Compound 534]	7.40	7.72	–	–
Cc1ccc(Nc2c(-c3ccc(Cl)c(F)c3)nc3n2CCN(C(=O)CN)C3)cc1 [Compound 520]	6.80	6.80	–	–
CC1(C)NCCn2c1nc(-c1ccc(F)cc1)c2Nc1cccc(F)c1 [Compound 514]	7.52	7.62	–	–
Cc1ccc(Nc2c(-c3ccc(F)cc3)nc3n2CCN(C(=O)[C@@H](N)CC(C)C)C3)cc1 [Compound 480]	7.52	7.66	–	–
O=C([C@@H]1CCN1)N1CCn2c(nc(-c3ccc(F)cc3)c2Nc2ccc(F)c(F)c2)C1 [Compound 441]	7.22	7.09	–	–
CN[C@@H](Cc1ccc(Cl)cc1)C(=O)N1CCn2c(nc(-c3ccc(F)cc3)c2Nc2ccc(C)cc2)C1 [Compound 400]	6.74	6.98	–	–
CN1CC(C)(C)n2c(nc(-c3ccc(F)cc3)c2Nc2ccc(F)cc2)C1(C)C [Compound 536]	5.19	5.23	–	–
CN1Cc2nc(-c3ccc(F)cc3)c(Nc3ccc(Cl)cc3)n2CC1(C)C [Compound 556, N-(4-chlorophenyl)-2-(4-fluorophenyl)-6,6,7-trimethyl-5,6,7,8-tetrahydroimidazo[1,2-a]pyrazin-3-amine]	7.22	7.12	–	–
Cc1ccc(Nc2c(-c3ccc(F)cc3)nc3n2CCN(C(=O)C(C)(C)N)C3(C)C)cc1 [Compound 529, 2-amino-1-(2-(4-fluorophenyl)-8,8-dimethyl-3-(p-tolylamino)-5,6-dihydroimidazo[1,2-a]pyrazin-7(8H)-yl)-2-methylpropan-1-one]	8.70	8.40	–	–
Cc1ccc(Nc2c(-c3ccc(F)cc3)nc3n2CCN(C(=O)[C@@H](C)NCc2ccccc2)C3)cc1 [Compound 402]	6.92	6.91	–	–
Cc1ccc(C[C@H](N)C(=O)N2CCn3c(nc(-c4ccc(F)cc4)c3Nc3ccc(F)c(F)c3)C2)cc1 [Compound 432]	7.22	7.17	–	–
Cc1ccc(Nc2c(-c3ccc(F)c(Cl)c3)nc3n2CCN(C(=O)CN)C3)cc1 [Compound 519]	6.08	6.23	–	–
CCN(c1cccc(F)c1)c1c(-c2ccc(F)cc2)nc2n1CCNC2 [Compound 446]	6.51	6.61	–	–
Cc1ccc(Nc2c(-c3ccc(F)cc3)nc3n2CCN(C(=O)CN)C3(C)C)cc1F [Compound 533]	7.52	7.66	–	–
CC1(C)NC(=O)Cn2c1nc(-c1ccc(F)cc1)c2Nc1ccc(F)c(C#N)c1 [Compound 537]	4.92	5.08	–	–
CC(C)[C@H](O)C(=O)N1CCn2c(nc(-c3ccc(F)cc3)c2Nc2ccc(F)c(F)c2)C1 [Compound 440]	7.70	7.55	–	–
